The results in this text go back to US8143241B2, “DNA damage repair inhibitors for treatment of cancer” (Kudos Pharmaceuticals Limited, priority 2003, dated 2012).

pIC50: −log10 of the molar value.

Assay [1] has as its target PARP-3 (Homo sapiens, UniProt Q9Y6F1). The assay is described as follows: Selectivity: PARP-3 inhibition. Type of assay: biochemical. Conditions: at concentrations up to 1 μM.
For assay [2], the system named is Brca1 or Brca2 deficient cells. The assay is described as follows: Rad51 focus formation, Brca1 or Brca2 deficient ES cells. Type of assay: cell-based, mouse. Conditions: 48 hours. As for the experimental part:
(§1) ES cells were cultured for 48 h in various concentrations of PARP inhibitor fixed in 4% paraformaldehyde in PBS and permeabilised with 0.2% Triton X100 in PBS. Cells were stained with a 1:100 dilution of rabbit anti-Rad51 ployclonal antibody (Ab 551922, BD-Pharmingen, Oxford, UK). After washing, the primary antibody was visualised with Alexa Fluor-555 goat anti-rabbit IgG (Alexa) and nuclei with TO-PRO-3 iodide (Molecular Probes). Rad51 foci and γH2Ax foci were visualised with and quantified using a Leica TCS-SP2 confocal microscope.
(§2) Wild-type, and Brca1 and Brca2 defective ES cells were exposed to differing concentrations of KU0058684 for 48 hours. Cells were then fixed and stained for RAD51 foci as described by Tarsounas (Tarsounas M et al Oncogene. 2003 22(8): 1115-23).

For assay [3], the target named is PARP-1 (Homo sapiens, UniProt P09874). The assay is described as follows: PARP-1 enzyme activity inhibition. Type of assay: biochemical. Conditions: read-out: IC50 against PARP-1 enzyme activity.
Protocol: Chemical inhibitors were dissolved in DMSO at 10 mM and stored at −20° C. in the dark.
The test system of assay [4] is Brca2 deficient ES cells. The assay is described as follows: Clonogenic assay, continuous exposure, Brca2 deficient ES cells. Type of assay: cell-based, mouse. As for the experimental part:
(§3) For measurement of sensitivity to chemical inhibitors, cell cultures e.g. ES cells or mouse embryonic fibroblasts, in exponential growth were trypsinised and seeded at various densities in 6-well plates onto confluent monolayer of Mitomycin C (MMC) inactivated mouse embryonic fibroblasts and, where appropriate, treated with inhibitors after 18 h. For continuous exposure, cells were re-fed every 4 days with fresh medium and inhibitor. For timed exposures, inhibitor was added for the specified period then cells were washed and re-fed with fresh medium. After 10-14 days, cells were washed with PBS, fixed in methanol and stained with crystal violet. Colonies containing greater than approximately 50 cells were counted. Experiments were performed at least three times in triplicate.

Assay [5] concerns wild-type ES cells. The assay is described as follows: Rad51 focus formation, wild-type ES cells. Conditions: 48 hours. It is filed as cell-based, mouse. As for the experimental part:
as §1, §2

The subject of assay [6] is Brca2 deficient VC8 cells. The assay is described as follows: Neutral comet assay, Brca2 deficient VC8 cells. It is filed as cell-based, chinese hamster. The note with it: 30-hour exposure to 1 μM. The procedure: (§4) VC8 and VC8-BAC cells were plated 24 hours prior to treatment with 1 μM KU0058684 for 30 hours. All further work was carried out in the dark. Cells were washed with and scraped into PBS prior to Comet analysis as described (Lemay and Wood, 1999). Cells suspended in LMP agarose (0.5% in PBS) were spread onto Comet slides (Trevigen, Gaithersburg) and placed at 4 C until set, prior to lysis for 45 mins in 2.5M NaCl, 100 mM EDTA, 10 mM Tris Base, 1% sodium lauryl sarcosinate, 0.01% Triton X-100. Slides were transferred to TBE for 5 mins prior to electrophoresis at 18V for 15 mins. Slides were then fixed in 100% ethanol for 5 mins and air dried before the addition of SYBR green dye and visualisation by epifluorescence using fluorescien filters (Nikon). Comets were analysed using the Comet software module of the Lucia G imaging package as supplied by Nikon. 50 comets per data point were examined for each of three independent experiments and the mean tail moment calculated.

For assay [7], the target named is vault PARP (Homo sapiens, UniProt Q9UKK3). The assay is described as follows: Selectivity: vault PARP inhibition. It is filed as biochemical. Conditions: at concentrations up to 1 μM.
Assay [8] concerns Brca1 and Brca2 deficient cells. The assay is described as follows: Timed-exposure clonogenic assay, Brca1 and Brca2 deficient cells. Type of assay: cell-based, mouse. As for the experimental part: as §3
Cells were exposed to different concentrations of KU0058684 for defined periods of time. The inhibitor was then removed and the effects measured using a clonogenic assay. The inhibitory effects of KU0058684 on clonal growth were apparent after a relatively short exposure time, 4 h, and were essentially complete by 24 h exposure (FIGS. 5 and 6).

Assay [9] has as its system wild-type, Fanca−/−, Fancc−/− and Fanca−/−c−/− cells. The assay is described as follows: RAD51 focus formation in wild-type and FA fibroblasts. Type of assay: cell-based, mouse. The note with it: 48 hours exposure. As for the experimental part:
The percentage of cells with >5 foci per cell was quantified.
as §1

The test system of assay [10] is tankyrase. The note with it: at concentrations up to 1 μM.
Assay [11] has as its system MCF7-scrambled cells. As to the kind of experiment: Clonal survival, BRCA1 wild-type MCF7-scrambled cells. Type of assay: cell-based, human. Conditions: continuous exposure 12-14 days. From the text:
Log concentration of inhibitor is plotted against log surviving fraction of cells.
The MCF7 scrambled and MCF7-3.23 cell lines were generated by stable transfection of MCF7 mammary adenocarcinoma cells with gene specific pSUPER constructs. Gene specific pSUPER constructs were generated expressing the following RNAi target sequences: (i) human BRCA1 (SEQ ID NO:3) 5r-[…]-3′ (ii) scrambled control 5′-(SEQ ID NO:4) […]-3′. A 1.8 kb fragment containing the human EF1a promoter and the blasticidin resistance gene (bsd) was subcloned from pEFBsd (Invitrogen) into the SapI site of the resultant pSUPER constructs, generated pSUPER-Bsd-BRCA1 and pSUPER-Bsd-scrambled. MCF7 cells were transfected with these plasmids using FuGene6 (Roche) according to the manufacturers instructions. After selection in blasticidin, resistant clones were assessed by real time PCR for silencing of BRCA1 mRNA (Egawa et al Oncology. 2001; 61(4): 293-8; Egawa et al Int J. Cancer. 2001 Jul. 20; 95(4):255-9). Clones with reduced levels of BRCA1 mRNA were cultured (under blasticidin selection) over 8 passages and the real-time assay repeated.

Assay [12] deals with PARP-2 (Homo sapiens, UniProt Q9UGN5). The assay is described as follows: Inhibition of poly(ADP-ribose) polymerase activity of PARP-2. It is filed as biochemical.
Assay [13] concerns Brca1 deficient ES cells. The assay is described as follows: Clonogenic assay, continuous exposure, Brca1 deficient ES cells. It is filed as cell-based, mouse. The procedure: as §3
For assay [14], the system named is VC8-BAC cells. As to the kind of experiment: Neutral comet assay, complemented VC8-BAC line. It is filed as cell-based, chinese hamster. The note with it: 30-hour exposure to 1 μM. The procedure:
as §4

Assay [15] relates to wild-type, Fanca−/−, Fancc−/− and Fanca−/−c−/− cells. As to the kind of experiment: γH2AX foci formation in wild-type and FA fibroblasts. Type of assay: cell-based, mouse. The note with it: 48 hours exposure.
[16] abbreviates: timed exposure, inhibitor then removed.

Sequence of PARP-2 (Q9UGN5 whole entry): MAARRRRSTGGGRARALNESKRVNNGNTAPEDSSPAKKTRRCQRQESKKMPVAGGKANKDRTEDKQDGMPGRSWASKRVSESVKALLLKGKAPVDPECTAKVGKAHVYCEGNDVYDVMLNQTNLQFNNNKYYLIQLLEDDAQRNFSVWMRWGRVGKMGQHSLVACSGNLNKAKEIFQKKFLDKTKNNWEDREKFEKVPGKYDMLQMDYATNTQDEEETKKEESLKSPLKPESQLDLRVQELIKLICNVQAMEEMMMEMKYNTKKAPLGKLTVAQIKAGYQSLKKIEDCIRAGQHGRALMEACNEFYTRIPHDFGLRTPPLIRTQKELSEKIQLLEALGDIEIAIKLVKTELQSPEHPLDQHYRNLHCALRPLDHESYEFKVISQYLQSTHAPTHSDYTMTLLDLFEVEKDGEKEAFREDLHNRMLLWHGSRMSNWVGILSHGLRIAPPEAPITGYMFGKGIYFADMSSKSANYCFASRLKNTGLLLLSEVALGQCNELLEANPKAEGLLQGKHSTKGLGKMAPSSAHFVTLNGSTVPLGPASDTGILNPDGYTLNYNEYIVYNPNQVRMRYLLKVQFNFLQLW
Sequence of PARP-1 (P09874 whole entry): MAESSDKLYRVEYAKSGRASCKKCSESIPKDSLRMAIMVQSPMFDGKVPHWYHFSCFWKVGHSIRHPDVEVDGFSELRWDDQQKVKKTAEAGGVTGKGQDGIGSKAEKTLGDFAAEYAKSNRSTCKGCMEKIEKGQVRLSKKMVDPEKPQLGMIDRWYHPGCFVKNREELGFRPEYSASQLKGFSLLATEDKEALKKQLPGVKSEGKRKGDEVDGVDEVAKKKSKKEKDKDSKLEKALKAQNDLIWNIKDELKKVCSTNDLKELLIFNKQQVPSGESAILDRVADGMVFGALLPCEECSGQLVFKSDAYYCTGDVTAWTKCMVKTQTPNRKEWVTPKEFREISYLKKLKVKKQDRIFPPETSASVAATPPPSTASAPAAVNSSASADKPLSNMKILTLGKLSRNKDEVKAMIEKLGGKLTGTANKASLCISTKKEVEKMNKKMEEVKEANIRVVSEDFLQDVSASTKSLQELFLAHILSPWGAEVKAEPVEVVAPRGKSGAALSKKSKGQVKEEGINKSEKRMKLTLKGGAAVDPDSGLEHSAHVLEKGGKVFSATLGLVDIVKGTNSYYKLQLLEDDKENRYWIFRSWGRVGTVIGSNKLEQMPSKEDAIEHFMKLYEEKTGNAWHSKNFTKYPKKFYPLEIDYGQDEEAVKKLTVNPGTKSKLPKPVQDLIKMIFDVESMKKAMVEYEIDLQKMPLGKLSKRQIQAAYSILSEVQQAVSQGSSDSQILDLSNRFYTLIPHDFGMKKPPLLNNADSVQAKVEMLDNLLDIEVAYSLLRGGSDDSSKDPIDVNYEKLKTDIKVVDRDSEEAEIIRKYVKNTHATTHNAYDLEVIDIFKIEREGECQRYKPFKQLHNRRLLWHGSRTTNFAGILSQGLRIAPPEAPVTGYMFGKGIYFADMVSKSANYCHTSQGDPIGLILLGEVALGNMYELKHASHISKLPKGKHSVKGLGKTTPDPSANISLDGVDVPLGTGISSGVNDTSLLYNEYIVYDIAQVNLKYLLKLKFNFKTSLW
Sequence of vault PARP (Q9UKK3 whole entry): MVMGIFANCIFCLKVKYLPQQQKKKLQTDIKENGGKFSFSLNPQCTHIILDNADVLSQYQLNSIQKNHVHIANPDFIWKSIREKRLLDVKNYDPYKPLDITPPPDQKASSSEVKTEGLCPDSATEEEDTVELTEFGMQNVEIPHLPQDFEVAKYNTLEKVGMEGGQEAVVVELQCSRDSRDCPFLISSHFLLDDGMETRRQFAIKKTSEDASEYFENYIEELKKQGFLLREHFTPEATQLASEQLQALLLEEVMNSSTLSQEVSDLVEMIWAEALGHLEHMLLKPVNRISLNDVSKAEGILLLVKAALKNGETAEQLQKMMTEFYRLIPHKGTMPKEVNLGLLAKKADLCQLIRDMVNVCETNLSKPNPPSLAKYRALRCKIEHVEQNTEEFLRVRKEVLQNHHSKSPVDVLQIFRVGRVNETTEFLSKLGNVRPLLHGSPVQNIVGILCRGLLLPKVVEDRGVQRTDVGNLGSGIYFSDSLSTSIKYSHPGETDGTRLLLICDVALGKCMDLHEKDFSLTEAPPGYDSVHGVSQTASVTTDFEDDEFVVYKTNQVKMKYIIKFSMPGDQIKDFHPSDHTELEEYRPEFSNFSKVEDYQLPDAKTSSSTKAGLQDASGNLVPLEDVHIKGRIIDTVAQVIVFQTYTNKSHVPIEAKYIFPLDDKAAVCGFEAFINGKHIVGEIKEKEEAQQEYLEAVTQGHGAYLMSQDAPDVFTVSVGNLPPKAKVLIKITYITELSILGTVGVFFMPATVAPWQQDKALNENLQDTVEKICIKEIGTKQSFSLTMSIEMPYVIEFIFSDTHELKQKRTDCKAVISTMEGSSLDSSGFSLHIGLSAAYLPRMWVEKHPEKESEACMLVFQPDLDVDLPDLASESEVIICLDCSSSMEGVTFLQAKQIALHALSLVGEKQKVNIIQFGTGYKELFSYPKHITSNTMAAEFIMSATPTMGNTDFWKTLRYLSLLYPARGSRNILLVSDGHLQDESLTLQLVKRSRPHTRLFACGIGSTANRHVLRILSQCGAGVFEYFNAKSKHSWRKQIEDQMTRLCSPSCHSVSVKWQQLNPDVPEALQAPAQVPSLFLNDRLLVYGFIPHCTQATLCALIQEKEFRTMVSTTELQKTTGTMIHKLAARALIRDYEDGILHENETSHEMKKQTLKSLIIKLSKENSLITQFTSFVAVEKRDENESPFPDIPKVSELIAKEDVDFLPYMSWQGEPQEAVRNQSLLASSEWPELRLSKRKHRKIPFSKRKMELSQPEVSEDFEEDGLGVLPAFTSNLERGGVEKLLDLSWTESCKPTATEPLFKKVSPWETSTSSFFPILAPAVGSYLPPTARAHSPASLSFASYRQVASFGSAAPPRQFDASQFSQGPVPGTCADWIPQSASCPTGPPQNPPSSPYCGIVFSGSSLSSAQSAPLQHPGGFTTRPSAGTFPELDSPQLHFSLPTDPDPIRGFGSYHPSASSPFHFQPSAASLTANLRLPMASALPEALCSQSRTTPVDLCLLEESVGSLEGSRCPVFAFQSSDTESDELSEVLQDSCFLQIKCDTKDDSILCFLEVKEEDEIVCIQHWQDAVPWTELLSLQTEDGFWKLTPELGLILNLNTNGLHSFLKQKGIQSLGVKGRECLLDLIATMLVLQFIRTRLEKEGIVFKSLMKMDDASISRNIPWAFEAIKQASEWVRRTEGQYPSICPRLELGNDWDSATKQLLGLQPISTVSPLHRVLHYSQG
Sequence of PARP-3 (Q9Y6F1 whole entry, species assumed): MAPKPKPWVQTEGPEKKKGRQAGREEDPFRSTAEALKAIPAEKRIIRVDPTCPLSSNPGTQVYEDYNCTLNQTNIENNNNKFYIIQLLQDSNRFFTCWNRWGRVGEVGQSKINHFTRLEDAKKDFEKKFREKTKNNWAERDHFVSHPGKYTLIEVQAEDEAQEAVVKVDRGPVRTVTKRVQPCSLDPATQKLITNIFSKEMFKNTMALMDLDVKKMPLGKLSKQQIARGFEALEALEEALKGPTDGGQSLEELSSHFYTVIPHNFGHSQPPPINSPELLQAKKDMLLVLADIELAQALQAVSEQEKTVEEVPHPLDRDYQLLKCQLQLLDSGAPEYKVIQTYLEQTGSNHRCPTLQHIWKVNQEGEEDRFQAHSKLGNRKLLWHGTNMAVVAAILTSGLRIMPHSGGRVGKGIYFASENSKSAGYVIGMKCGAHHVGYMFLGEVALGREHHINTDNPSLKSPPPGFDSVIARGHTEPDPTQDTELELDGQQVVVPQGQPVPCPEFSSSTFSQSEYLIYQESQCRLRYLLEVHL

For the molecule `O=C1CCC(=O)N1c1cc(Cc2n[nH]c(=O)c3ccccc23)ccc1F` [KU0058684], in assay [1], the “inhibition of PARP-3” value was “do not inhibit”. Further, the results for the Rad51 foci formation entry in assay [2] and in assay [5] were “no foci were induced” and “caused Rad51 foci formation in a dose-dependent fashion”, respectively. Moreover, the pIC50 in assay [3] is 8.49; in assay [4] (Brca2 deficient ES cells, continuous exposure, read-out: SF50 (dosage at which 50% of cells survived)), 7.82; in assay [13] (Brca1 deficient ES cells, continuous exposure, read-out: SF50 (dosage at which 50% of cells survived)), 7.46. The “enhanced sensitivity compared to wild-type” value in [4] (Brca2 mutant cells vs wild-type) stood at 133 fold; in assay [13] (Brca1 mutant cells vs wild-type), 57 fold. Moreover, the “sensitivity of Brca2 deficient cells compared to otherwise isogenic cells” value in assay [4] (clonogenic assay) is “extremely sensitive”. In addition, the “increase in the tail moment” value in [6] amounted to 4.7 fold. Also, the “inhibition of vault PARP” value in assay [7] is reported as “do not inhibit”. In addition, in assay [8] (short exposure followed by 10-14 days in the absence of inhibitor), the “reversibility of the effects of PARP inhibition” value is “irreversible”. For the same molecule, in assay [8] (setting [16]), the “exposure time after which inhibitory effects on clonal growth were apparent” value was found to be 4 h. Further, the “exposure time by which inhibitory effects on clonal growth were essentially complete” value in assay [8] (setting [16]) was no more than 24 h. Besides, the RAD51 focus formation entry in assay [9] is on record as “Induction of RAD51 focus formation”. In [10], the inhibition of tankyrase entry is listed as “do not inhibit”. The “sensitivity (clonal survival)” value in assay [11] is given as “both cell lines were sensitive”. The “inhibition of poly(ADP-ribose) polymerase activity of PARP-1 and PARP-2” value in assay [12] was “potent and specific inhibitors”. Besides, the “sensitivity of Brca1 deficient cells compared to otherwise isogenic cells” value in [13] (clonogenic assay) is on record as “extremely sensitive”. The “increase in tail moment” value in assay [14] was “no significant increase”. For the same molecule, the γH2AX foci entry in [15] is “induction of γH2AX foci in all cells”.
